From patent publication US9334278B2, “Pyrrolo[2,3-B]pyrazines as SYK inhibitors” (Hoffmann-La Roche Inc., priority 2012, dated 2016)

Assays:
[1] = target: recombinant human SYK360-635 (Spleen Tyrosine Kinase) (Homo sapiens (Human), UniProt P43405); test: SYK kinase assay (33P filtration, IC50 of SYK inhibition); conditions: read-out: ENZYME_FILTRATION_IC50; SYK 0.5 nM, ATP 20 μM, 33P filtration
Description: Determination of IC50 of Spleen Tyrosine Kinase (SYK) inhibition:
SYK kinase assay is a standard kinase assay adapted to a 96 well plate format. This assay is performed in 96-well format for IC50 determination with 8 samples which represented 10 half log dilutions and a 40 μL reaction volume. The assay measures the incorporation of radiolabeled ^33P γATP into an N-terminally biotinylated peptide substrate, derived from naturally occurring phosphoacceptor consensus sequence (Biotin-11aa DY*E). Phosphorylated products were detected upon termination of reactions with EDTA and the addition of Streptavidin coated beads.
BSA: Bovine Serum Albumin Fraction V, fatty acid free (Roche Diagnostics GmbH, Cat. No. 9100221) diluted to a final concentration of 0.1%
Assay Dilution Buffer (ADB): 50 mM HEPES, 0.1 mM EGTA, 0.1 mM Na Vanadate, 0.1 mM (3-glycerophosphate, 10 mM MgCl2, 1 mM DTT, 0.1% BSA, pH 7.5
Bead wash buffer: 10 g/L PBS (Phosphate buffered saline) with 2M NaCl+1% phosphoric acid.
DMSO and the mixture was incubated for 10 min at RT.
The kinase reaction was initiated by the addition of 10 μL 4× substrate cocktail containing the DYE peptide substrate [0 or 5 μM], ATP [20 μM] and ^33PγATP [2 μCi/r×n]. After incubation at 30° C. for 15 min, the reaction was terminated by the transfer of 25 μL of the reaction sample to a 96 well 0.65 μm Millipore MADVNOB membrane/plate containing 200 μL 5 mM EDTA and 20% Streptavidine coated beads in PBS.
The unbound radionucleotides were washed under vacuum with 3×250 μL 2M NaCl; 2×250 μL 2M NaCl+1% phosphoric acid; 1×250 μL H2O. After the last wash membrane/plates were transferred to an adaptor plate, heat dried for 15 min at 60° C., and 50 μL scintillation cocktail was added to each well and 4 h later the amount of radioactivity was counted in a top counter.

[2] = tested on: B cell CD69 up-regulation in human whole blood; test: B Cell CD69 Up-Regulation Assay in Human Whole Blood; assay type: cell-based; conditions: anti-human IgM 50 μg/mL for 20 h, CD69hi CD20+ B cells
Description: B Cell CD69 Up-Regulation Assay in Human Whole Blood
Human Blood was collected from healthy volunteers into Vacutainers (BD Biosciences, San Jose, Calif.) containing sodium heparin. Test compound was suspended in DMSO and nine half-log serial dilutions were made. The concentration of […] in the assay was 0.5%. 100 μL whole blood was pre-incubated with compound for 30 min and then stimulated with goat F(ab′)2 anti-human IgM (50 μg/mL, Southern Biotech) for 20 h. At the end of the 20 hour incubation, samples were incubated with fluorochrome-conjugated antibodies, PE mouse anti-human CD20 and APC Mouse anti-human CD69 (BD Biosciences), for 30 minutes. Samples were then lysed with Lyse solution (BD) and washed with PBS containing 2% fetal bovine serum (FBS). Fluorescent signals were acquired on flow cytometer LSR II (BD) and data were analyzed by Flow Jo. The percentage of activated (CD69hi) B-cell lymphocytes (CD20+) were determined using un-stimulated (negative control) and stimulated (positive control) wells as reference guidelines. The percentage inhibition was calculated and an IC50 curve was constructed using GraphPad Prism software with sigmoidal curve fitting.

[3] = tested on: Human B cell lymphoma cell line Ramos; test: Ramos Calcium Influx FLIPR Assay; assay type: cell-based; conditions: Ramos cells, anti-human IgM 10 μg/mL stimulation, read-out: RAMOS_IC50
Description: Ramos Calcium Influx FLIPR Assay
Human B cell lymphoma cell line Ramos was cultivated in RPMI-1640 with 10% Fetal Bovine Serum (Invitrogen). Cells were seeded into assay plate and loaded with calcium dye by adding 30 μl of dye loading buffer according to manufacturer's instruction (Beckton Dickinson Calcium Kit, Cat#80500). The cells were then treated with serial diluted compounds for 30 min before stimulation. Baseline fluorescence was recorded for about 20 seconds followed by stimulation with mouse anti-human IgM (10 μg/mL, clone M2E6, Antibody Solutions Inc.) for Ramos cells, and record of the maximal fluorescent counts in each well. Maximal counts divided by baseline counts, defined as fold change from baseline for each well, was used for IC50 calculation.

SMILES	IC50 [1] [nM]	IC50 [2] [nM]	IC50 [3] [nM]
CCn1cc(Nc2cnc3[nH]cc(C(=O)NC(C)(C)C)c3n2)cn1 [Compound I-14, N-tert-butyl-2-(1-ethyl-1H-pyrazol-4-ylamino)-5H-pyrrolo[2,3-b]pyrazine-7-carboxamide]	35.9	184	101
Cc1ncc(Nc2cnc3[nH]cc(C(=O)NC(C)(C)C)c3n2)cn1 [Compound I-7, N-tert-butyl-2-(2-methylpyrimidin-5-ylamino)-5H-pyrrolo[2,3-b]pyrazine-7-carboxamide]	164	258	283
Cc1cc(Nc2nc3c(C(=O)NC(C)(C)C)c[nH]c3nc2C)sn1 [Compound I-36, 3-Methyl-2-(3-methyl-isothiazol-5-ylamino)-5H-pyrrolo[2,3-b]pyrazine-7-carboxylic acid tert-butylamide]	251	8300	1250
COc1ncc(Nc2cnc3[nH]cc(C(=O)NC(C)(C)C)c3n2)cn1 [Compound I-25, N-tert-butyl-2-(2-methoxypyrimidin-5-ylamino)-5H-pyrrolo[2,3-b]pyrazine-7-carboxamide]	71.2	433	213
Cc1cc(Nc2cnc3[nH]cc(C(=O)NC(C)(C)C)c3n2)on1 [Compound I-22, N-tert-butyl-2-(3-methylisoxazol-5-ylamino)-5H-pyrrolo[2,3-b]pyrazine-7-carboxamide]	25.1	1340	79.7
CC(N)c1cccc(Nc2cnc3[nH]cc(C(=O)NC(C)(C)C)c3n2)c1 (stereo not drawn) [Compound I-27, 2-(3-(1-aminoethyl)phenylamino)-N-tert-butyl-5H-pyrrolo[2,3-b]pyrazine-7-carboxamide]	18.8	631	223

Continued by falling IC50 [1], values first:

IC50 [1] [nM]	IC50 [2] [nM]	IC50 [3] [nM]	SMILES
1900	> 50000	4800	CN(c1cccnc1)c1cnc2[nH]cc(C(=O)NC(C)(C)C)c2n1 [Compound I-21, N-tert-butyl-2-(methyl(pyridin-3-yl)amino)-5H-pyrrolo[2,3-b]pyrazine-7-carboxamide]
97.5	268	278	Cc1nn(C)cc1Nc1cnc2[nH]cc(C(=O)NC(C)(C)C)c2n1 [Compound I-30, N-tert-butyl-2-(1,3-dimethyl-1H-pyrazol-4-ylamino)-5H-pyrrolo[2,3-b]pyrazine-7-carboxamide]
42.8	918	258	Cc1ccc(Nc2cnc3[nH]cc(C(=O)NC(C)C)c3n2)nc1 [Compound I-4, N-isopropyl-2-(5-methylpyridin-2-ylamino)-5H-pyrrolo[2,3-b]pyrazine-7-carboxamide]
27.4	535	245	Cc1ccc(Nc2cnc3[nH]cc(C(=O)NC(C)(C)CO)c3n2)nc1 [Compound I-2, N-(1-hydroxy-2-methylpropan-2-yl)-2-(5-methylpyridin-2-ylamino)-5H-pyrrolo[2,3-b]pyrazine-7-carboxamide]
21.1	204	146	Cn1ccc(Nc2cnc3[nH]cc(C(=O)NC(C)(C)C)c3n2)n1 [Compound I-3, N-tert-butyl-2-(1-methyl-1H-pyrazol-3-ylamino)-5H-pyrrolo[2,3-b]pyrazine-7-carboxamide]
15.5	343	93.1	Cc1cc(Nc2cnc3[nH]cc(C(=O)NC(C)(C)C)c3n2)[nH]n1 [Compound I-9, N-tert-butyl-2-(3-methyl-1H-pyrazol-5-ylamino)-5H-pyrrolo[2,3-b]pyrazine-7-carboxamide]
8.5	627	122	Cc1ccc(Nc2cnc3[nH]cc(C(=O)NC(C)(C)C)c3n2)nc1 [Compound I-1, N-tert-butyl-2-(5-methylpyridin-2-ylamino)-5H-pyrrolo[2,3-b]pyrazine-7-carboxamide]
